Data: patent publication US20250205182A1, “COMPOSITIONS AND METHODS FOR IMPROVING GUT PERMEABILITY” (BRIGHTSEED, INC., priority 2022, published 2025)
Entries after “also recorded” stand apart in the source; their conditions may differ.

Tested on: human transverse colon epithelial cells
Assay: Transepithelial electrical resistance (TEER) of transverse colon monolayers treated with TNFα
Type: cell-based
Settings: for TEER: with TNF; for change in TEER as a result of TNF administration: with TNFα, 10, 20, 40 μM, after 48 hours, relative to t=0
From the text: Cell Information: Donor 5 Transverse Colon, HISC-0033, Passage 10. Plated onto 4×96-well RepliGut® transwell plates coated with thin hydrogel coating. 2× RepliGut® transwell plates had 1.0 μm pore size (Corning 3380) and 2× RepliGut® transwell plates had 0.4 μm pore size (Corning 7369).
Compound Information: TNFα was supplied by Allis Biosystems and reconstituted according to the manufacturer's instructions. All other compounds were provided by Brightseed in DMSO (Table 1). Stocks were created for each treatment (Table 2) so that the final concentration of an individual compound in the culture media was 0.1% media volume for all compounds.
Proliferative human transverse colon epithelial cells were plated in Altis Expansion media using Altis-established protocols onto 4×96-well RepliGut® transwell plates coated with a thin layer of hydrogel. Cultures were monitored every day using a bright field microscope. Transverse colon epithelial monolayers became confluent on Day 4, at which point media was changed to Altis Differentiation media. The cells were cultured for an additional 2 days. Brightseed compounds and TNFα, listed in Table 2, were diluted in Altis Differentiation media, mixed well, and added to apical and basal compartment of transwell cultures at t=0 hours. All conditions were performed in triplicate. Cells were treated with compounds for a total of 48 hours.
Transepithelial electrical resistance was measured in all transwell cultures at t=0 hours prior to the addition of compounds to determine baseline TEER using an Epithelial Volt/Ohm Meter (World Precision Instruments, EVOM2) and STX100C96 Electrode. TEER was also measured at t=24 hours, t=45 hours, and t=48 hours. The surface area of a 96-well transwell is 0.143 cm^2 per well. Corrected TEER was calculated using the formula below.
(Raw measured TEER of sample transwell−Raw measured TEER of blank transwell)×Surface Area
Statistical analysis was performed using GraphPad Prism software version 9.4.1 (GraphPad Inc., La Jolla, CA, USA). Two-way ANOVA of means from n=3 samples per group was performed to measure simple effects within treatment groups. Tukey's range test was performed to correct for multiple comparisons. Differences between the groups were considered significant at p<0.05.

[1] = FIGS. 1-12 (TEER and permeability)

For `COc1cc(/C=C/C(=O)NCCc2ccc(O)cc2)ccc1O` [Compound 2, N-trans-feruloyltyramine], the TEER (10 μM) was “improved TEER”, the TEER (20 and 40 μM) was “did not show the same dose-dependent effect” and the “change in TEER as a result of TNF administration” value (“change in TEER as a result” below) was “dose-dependent and statistically significant reversal of this decrease”. For the same molecule, the “change in TEER as a result” value (listed as NFT) was “protected against (a) decreased TEER”.
In the case of `O=C(/C=C/c1ccc(O)c(O)c1)NCCc1ccc(O)cc1` [Compound 1, N-trans-caffeoyltyramine], the “optimal concentration of the study” value [1] is reported as 40 µM, the “rank of effect among the test articles” value [1] is reported as “greatest effect” and the “change in TEER as a result” value is reported as “dose-dependent and statistically significant reversal of this decrease”. The “change in TEER as a result” value (listed as NCT) was “improved the change in TEER as a result of TNF administration in a dose-dependent manner; also recorded: protected against (a) decreased TEER”.
